Experiments:
M. alcahphilum = experiment: Antimicrobial activity of Ptet inducer anhydrotetracycline, evaluated on methanol; assay type: cell-based, Methylotuvimicrobium alcaliphilum
Experimental: Luria-Bertani (LB) broth and agar plates are routinely used to culture E. coli cells at 37° C. For routine cultivation of M. alcahphilum strain WT (wild type) and its derivatives, Pi (π) media with 3% (w/v) NaCl is used as described in Collins and Kaluzhnaya.^56 When needed, kanamycin (Kan) is added to the growth medium at 100 μg/mL for ts. alcahphilum and 50 μg/mL for E. coli cultures. Ampicillin is added to the growth medium at 100 μg/mL. M alcahphilum cell cultures are grown as batch cultures, either 4 mL culture in 20 mL anaerobic glass tubes or 10 mL culture in 50 mL serum vials, under a methane (99.9%; Airgas): air atmosphere (1:1). Cell cultures are incubated at 30° shaking at 220 rpm. Cell growth is measured as optical density (OD 600 nm) using Spectronic 200E spectroscope at time points mentioned in results and discussion. Single colony isolates and transformant selections are performed on Pi media agar plates incubated in anaerobic jars (Oxoid; Remel) under a methane-air atmosphere (1:1). For M. alcahphilum (pDA17) induction, antimicrobial activity of Ptet inducer, anhydrotetracycline (aTC) is first evaluated (FIG. 7) on methanol, it is observed that aTC antimicrobial effect on M. alcahphilum is apparent at concentration >2.5 μg/mL. Thus, based on the observation and previous report 33 , concentration of 1 μg/mL aTC is used for optimal gene expression. […]

[1] = system: M. alcaliphilum strain DSM19304 (WT); experiment: Inhibitory effect of rhamnolipids on growth (OD600) of M. alcaliphilum wild type on CH4; assay type: cell-based, Methylotuvimicrobium alcaliphilum
Description: M. alcaliphilum converts methane by sequential oxidation to formaldehyde, which enters the central carbon metabolism through the RUMP pathway^39. M. alcaliphilum produces high amounts of glycogen, sucrose and ectoine with smaller amounts of lactate, formate, succinate and no known reports of RLs^38,40,41. Rhamnolipids are used as biocontrol/anti-microbial agents, and increasing rhamnolipid concentrations are found to negatively impact growth of Gram-negative and Gram-positive heterologous hosts, E. coli, Bacillus subtilis and Corynebacterium glutamicum^23. Therefore, M. alcaliphilum growth is tested in the presence of RLs. […] The RL toxicity to M. alcaliphilum is much higher than reported concentrations in other Gram-negative host like E. coli (>90 g/L). The toxicity of RLs to M. alcaliphilum required adaptive evolution to permit the strain to produce rhamnolipids.
Luria-Bertani (LB) broth and agar plates are routinely used to culture E. coli cells at 37° C. For routine cultivation of M. alcahphilum strain WT (wild type) and its derivatives, Pi (π) media with 3% (w/v) NaCl is used as described in Collins and Kaluzhnaya.^56 When needed, kanamycin (Kan) is added to the growth medium at 100 μg/mL for ts. alcahphilum and 50 μg/mL for E. coli cultures. Ampicillin is added to the growth medium at 100 μg/mL. M alcahphilum cell cultures are grown as batch cultures, either 4 mL culture in 20 mL anaerobic glass tubes or 10 mL culture in 50 mL serum vials, under a methane (99.9%; Airgas): air atmosphere (1:1). Cell cultures are incubated at 30° shaking at 220 rpm. Cell growth is measured as optical density (OD 600 nm) using Spectronic 200E spectroscope at time points mentioned in results and discussion. Single colony isolates and transformant selections are performed on Pi media agar plates incubated in anaerobic jars (Oxoid; Remel) under a methane-air atmosphere (1:1). For M. alcahphilum (pDA17) induction, antimicrobial activity of Ptet inducer, anhydrotetracycline (aTC) is first evaluated (FIG. 7) on methanol, it is observed that aTC antimicrobial effect on M. alcahphilum is apparent at concentration >2.5 μg/mL. Thus, based on the observation and previous report 33 , concentration of 1 μg/mL aTC is used for optimal gene expression. M. alcahphilum (pDA17) cultures are induced with anhydrotetracycline (1 μg/mL) at time of inoculation^33.

E. coli = conditions: literature; cited from earlier work
[2] = system: M. alcaliphilum strain DASS; experiment: Rhamnolipid tolerance of the adapted strain after adaptive laboratory evolution; assay type: cell-based, Methylotuvimicrobium alcaliphilum
Experimental: A course of adaptive laboratory evolution to allow M. alcaliphilum to grow on CH4 in the RLs is followed for four months. During this adaptation, M. alcaliphilum strain DSM19304 (hereafter referred as WT, wild type) is subjected to gradually increasing RL concentration starting from 0.5 g/L to 5 g/L (FIG. 2B). At the end of multiple transfers over a period of four months, an M. alcaliphilum strain tolerant to RLs (strain DASS) is obtained.
M. alcahphilum strain DSM19304 is grown in batch cultures of 10 mL Pi media in 50 mL serum vials under a methane-air atmosphere at 30° C. with agitation at 200 rpm. To adapt the cells to grow in the presence of RLs, 0.5 g/L RL (90% mono-RL, Millipore Sigma) is supplemented to the starting cell culture. The concentration of RLs is increased gradually and stepwise (1, 1.5, 2, 3, 4 and 5 g/L) to achieve a final strain of M. alcahphilum tolerant to 5 g/L RL. A 0.1% inoculum is manually transferred from a growing batch culture to a fresh culture in 48-60h. The RL concentration in the media is increased to next higher concentration when the OD 600 nm at 48 h of the growing batch culture with RL reached similar OD600 to WT (>1.0) at the end of 48 h. After the adaptation, single colonies of M. alcahphilum strain DASS are isolated on Pi media agar plates. Multiple single colony isolates are confirmed to be M. alcahphilum via 16S rRNA sequencing to rule out possibility of co-contaminants. No differences are observed in growth of multiple single colonies that are tested, one clone is selected for further analysis and plasmid transformation.

Molecule | concentration at which antimicrobial effect is apparent (M. alcahphilum) [µg/mL] | growth inhibition ([1]; 1 g/L RL amendment, 36 hours of culture) | concentration inhibitory to growth ([1]; M. alcaliphilum DSM19304) [g/L] | reduction in final optical density ([1]; medium amended with 0.1 g/L RL, 36 hours of culture) [%] | MIC ([1]; parent strain DSM19304) [µg/mL] | concentration of rhamnolipids that cannot be tolerated ([1]; strain DSM19304, surfactant effects) [g/L] | reported toxic concentration (E. coli) [g/L] | fold higher concentration in which the adapted strain grows compared to parent strain ([2]; DASS vs parent strain) [fold] | tolerated rhamnolipid concentration ([2]; evolved strain DASS, grown on CH4, listed as RL) [g/L] | growth with RL in the absence of CH4 (RL as carbon source) ([2]; strain DASS, 5 g/L RL, no CH4)
Cc1c2c(c(O)c3c(O)cccc13)C(=O)[C@]1(O)C(=O)C(C(N)=O)=C(O)[C@@H](N(C)C)[C@@H]1C2 [aTC, anhydrotetracycline] | > 2.5 |  |  |  |  |  |  |  |  | 
rhamnolipids |  | almost complete inhibition | < 0.05 | 50 | 500 | 0.5 | > 90 | 10 | 5 | did not promote growth
